The structures appear in SMILES notation. pEC50: −log10 of the molar value.

This test addresses T1, full-length beta-catenin (Axin site) (Homo sapiens, UniProt P35222).
T1 construct: 15 nM full-length beta-catenin, 20 nM FITC labeled peptide in buffer
T1 sequence (P35222 1-781): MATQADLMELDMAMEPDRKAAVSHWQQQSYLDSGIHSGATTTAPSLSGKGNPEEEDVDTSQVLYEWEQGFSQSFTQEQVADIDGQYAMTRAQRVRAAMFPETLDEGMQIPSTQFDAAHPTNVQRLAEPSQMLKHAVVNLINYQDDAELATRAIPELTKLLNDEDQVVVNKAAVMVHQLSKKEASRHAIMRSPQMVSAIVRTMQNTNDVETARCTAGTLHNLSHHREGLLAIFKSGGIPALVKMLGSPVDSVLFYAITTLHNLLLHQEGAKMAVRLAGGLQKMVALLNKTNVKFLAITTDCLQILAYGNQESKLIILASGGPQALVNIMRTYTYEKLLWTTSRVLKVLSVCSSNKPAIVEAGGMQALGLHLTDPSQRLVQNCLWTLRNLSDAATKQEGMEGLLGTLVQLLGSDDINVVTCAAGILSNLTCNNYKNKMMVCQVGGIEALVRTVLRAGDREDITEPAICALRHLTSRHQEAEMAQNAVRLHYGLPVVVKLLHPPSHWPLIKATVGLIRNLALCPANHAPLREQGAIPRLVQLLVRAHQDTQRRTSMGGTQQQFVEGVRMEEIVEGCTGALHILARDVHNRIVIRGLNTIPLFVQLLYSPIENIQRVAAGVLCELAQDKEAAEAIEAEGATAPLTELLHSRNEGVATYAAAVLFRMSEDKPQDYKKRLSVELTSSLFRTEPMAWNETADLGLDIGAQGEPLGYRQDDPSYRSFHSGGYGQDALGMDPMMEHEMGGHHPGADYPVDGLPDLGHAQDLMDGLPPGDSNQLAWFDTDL
The experiment in a line: Competition fluorescence polarization assay (Axin site probe). Conditions: competition with FITC labeled Axin-site probe, 15 nM full-length beta-catenin; read-out: FP EC50. It counts as binding. In a few lines: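 Competition FP: 15 nM full-length β-catenin pre-incubated 5 min with 20 nM FITC-labelled stapled Axin-site peptide, then titrated peptide added (3-fold series from 5 μM) for 15 min in the dark. Buffer 50 mM Tris pH 8.0, 250 mM NaCl, 2% glycerol, 0.5 mM EDTA; duplicate reads.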
(In fluorescence polarisation assays a small probe gives low polarisation when free and higher when bound to something large.)
Broadly, the pEC50 is the EC50 on a negative log10 scale, so that one unit is a factor of ten. For `CC[C@H](C)[C@@H]1NC(=O)C2(NC(=O)[C@H](CCC(N)=O)NC(=O)[C@@H]3CCCN3C(C)=O)CN(C2)C(=O)OCC=CCC[C@](C)(C(=O)N[C@@H](Cc2c[nH]cn2)C(=O)N[C@H](C(=O)N[C@@H](CCCNC(=N)N)C(=O)N[C@@H](CCCNC(=N)N)C(=O)N[C@H](C(=O)N[C@@H](Cc2c[nH]c3ccccc23)C(=O)N[C@@H](CCCNC(=N)N)C(N)=O)C(C)C)C(C)C)NC(=O)[C@H](CC(=O)O)NC(=O)[C@H](CC(C)C)NC1=O` (single isomer, unassigned) [FP-0721c, Ac-P-Q-Az-I-L-D-R4-H-V-R-R-V-W-R-NH2], the negative-log EC50 (pEC50) was 5.89.
The same measure for `CC[C@H](C)[C@@H]1NC(=O)C2(NC(=O)[C@H](CCC(N)=O)NC(=O)[C@@H]3CCCN3C(C)=O)CN(C2)C(=O)OCC=CCCC[C@](C)(C(=O)N[C@@H](Cc2c[nH]cn2)C(=O)N[C@H](C(=O)N[C@@H](CCCNC(=N)N)C(=O)N[C@@H](CCCNC(=N)N)C(=O)N[C@H](C(=O)N[C@@H](Cc2c[nH]c3ccccc23)C(=O)N[C@@H](CCCNC(=N)N)C(N)=O)C(C)C)C(C)C)NC(=O)[C@H](CC(=O)O)NC(=O)[C@H](CC(C)C)NC1=O` (single isomer, unassigned) [FP-0723c, Ac-P-Q-Az-I-L-D-R5-H-V-R-R-V-W-R-NH2]: 5.85.
Consider `CC[C@H](C)[C@@H]1NC(=O)C2(NC(=O)[C@H](CCC(N)=O)NC(=O)[C@@H]3CCCN3C(C)=O)CN(CC=CCCCC[C@](C)(C(=O)N[C@@H](Cc3c[nH]cn3)C(=O)N[C@H](C(=O)N[C@@H](CCCNC(=N)N)C(=O)N[C@@H](CCCNC(=N)N)C(=O)N[C@H](C(=O)N[C@@H](Cc3c[nH]c4ccccc34)C(=O)N[C@@H](CCCNC(=N)N)C(N)=O)C(C)C)C(C)C)NC(=O)[C@H](CC(=O)O)NC(=O)[C@H](CC(C)C)NC1=O)C2` (single isomer, unassigned) [FP-0725, Ac-P-Q-Az-I-L-D-R6-H-V-R-R-V-W-R-NH2], for which the pEC50 was 6.24.
On to `CC[C@H](C)[C@@H]1NC(=O)[C@@](C)(NC(=O)[C@H](CCC(N)=O)NC(=O)[C@@H]2CCCN2C(C)=O)CCCC=CCN2CC(C(=O)N[C@@H](Cc3c[nH]cn3)C(=O)N[C@H](C(=O)N[C@@H](CCCNC(=N)N)C(=O)N[C@@H](CCCNC(=N)N)C(=O)N[C@H](C(=O)N[C@@H](Cc3c[nH]c4ccccc34)C(=O)N[C@@H](CCCNC(=N)N)C(N)=O)C(C)C)C(C)C)(C2)NC(=O)[C@H](CC(=O)O)NC(=O)[C@H](CC(C)C)NC1=O` (single isomer, unassigned) [FP-0734, Ac-P-Q-S5-I-L-D-Az-H-V-R-R-V-W-R-NH2], for which the pEC50 was below 5.30.
Regarding `CC[C@H](C)[C@@H]1NC(=O)[C@@](C)(NC(=O)[C@H](CCC(N)=O)NC(=O)[C@@H]2CCCN2C(C)=O)CCCC=CCOC(=O)N2CC(C(=O)N[C@@H](Cc3c[nH]cn3)C(=O)N[C@H](C(=O)N[C@@H](CCCNC(=N)N)C(=O)N[C@@H](CCCNC(=N)N)C(=O)N[C@H](C(=O)N[C@@H](Cc3c[nH]c4ccccc34)C(=O)N[C@@H](CCCNC(=N)N)C(N)=O)C(C)C)C(C)C)(C2)NC(=O)[C@H](CC(=O)O)NC(=O)[C@H](CC(C)C)NC1=O` (single isomer, unassigned) [FP-0734c, Ac-P-Q-S5-I-L-D-Az-H-V-R-R-V-W-R-NH2], the negative-log EC50 (pEC50) was below 5.30.
On to `CC[C@H](C)[C@@H]1NC(=O)[C@@](C)(NC(=O)[C@H](CCC(N)=O)NC(=O)[C@@H]2CCCN2C(C)=O)CCCCCC=CCN2CC(C(=O)N[C@@H](Cc3c[nH]cn3)C(=O)N[C@H](C(=O)N[C@@H](CCCNC(=N)N)C(=O)N[C@@H](CCCNC(=N)N)C(=O)N[C@H](C(=O)N[C@@H](Cc3c[nH]c4ccccc34)C(=O)N[C@@H](CCCNC(=N)N)C(N)=O)C(C)C)C(C)C)(C2)NC(=O)[C@H](CC(=O)O)NC(=O)[C@H](CC(C)C)NC1=O` (single isomer, unassigned) [FP-0738, Ac-P-Q-S7-I-L-D-Az-H-V-R-R-V-W-R-NH2], for which the pEC50 is 6.70.
The same measure for `CC[C@H](C)[C@@H]1NC(=O)[C@@](C)(NC(=O)[C@H](CCC(N)=O)NC(=O)[C@@H]2CCCN2C(C)=O)CCCCCC=CCOC(=O)N2CC(C(=O)N[C@@H](Cc3c[nH]cn3)C(=O)N[C@H](C(=O)N[C@@H](CCCNC(=N)N)C(=O)N[C@@H](CCCNC(=N)N)C(=O)N[C@H](C(=O)N[C@@H](Cc3c[nH]c4ccccc34)C(=O)N[C@@H](CCCNC(=N)N)C(N)=O)C(C)C)C(C)C)(C2)NC(=O)[C@H](CC(=O)O)NC(=O)[C@H](CC(C)C)NC1=O` (single isomer, unassigned) [FP-0738c, Ac-P-Q-S7-I-L-D-Az-H-V-R-R-V-W-R-NH2]: 5.74; for `CC[C@H](C)[C@@H]1NC(=O)[C@@]2(NC(=O)[C@H](CCC(N)=O)NC(=O)[C@@H]3CCCN3C(C)=O)CCN(CC=CCCC[C@](C)(C(=O)N[C@@H](Cc3c[nH]cn3)C(=O)N[C@H](C(=O)N[C@@H](CCCNC(=N)N)C(=O)N[C@@H](CCCNC(=N)N)C(=O)N[C@H](C(=O)N[C@@H](Cc3c[nH]c4ccccc34)C(=O)N[C@@H](CCCNC(=N)N)C(N)=O)C(C)C)C(C)C)NC(=O)[C@H](CC(=O)O)NC(=O)[C@H](CC(C)C)NC1=O)C2` (single isomer, unassigned) [FP-0743, Ac-P-Q-PR-I-L-D-R5-H-V-R-R-V-W-R-NH2]: below 5.30.
`CC[C@H](C)[C@@H]1NC(=O)[C@@]2(NC(=O)[C@H](CCC(N)=O)NC(=O)[C@@H]3CCCN3C(C)=O)CCN(C2)C(=O)OCC=CCCCC[C@](C)(C(=O)N[C@@H](Cc2c[nH]cn2)C(=O)N[C@H](C(=O)N[C@@H](CCCNC(=N)N)C(=O)N[C@@H](CCCNC(=N)N)C(=O)N[C@H](C(=O)N[C@@H](Cc2c[nH]c3ccccc23)C(=O)N[C@@H](CCCNC(=N)N)C(N)=O)C(C)C)C(C)C)NC(=O)[C@H](CC(=O)O)NC(=O)[C@H](CC(C)C)NC1=O` (single isomer, unassigned) [FP-0745c, Ac-P-Q-PR-I-L-D-R6-H-V-R-R-V-W-R-NN2]: the pEC50 is 6.96.
Regarding `CC[C@H](C)[C@@H]1NC(=O)[C@]2(NC(=O)[C@H](CCC(N)=O)NC(=O)[C@@H]3CCCN3C(C)=O)CCN(CC=CCCC[C@@](C)(C(=O)N[C@@H](Cc3c[nH]cn3)C(=O)N[C@H](C(=O)N[C@@H](CCCNC(=N)N)C(=O)N[C@@H](CCCNC(=N)N)C(=O)N[C@H](C(=O)N[C@@H](Cc3c[nH]c4ccccc34)C(=O)N[C@@H](CCCNC(=N)N)C(N)=O)C(C)C)C(C)C)NC(=O)[C@H](CC(=O)O)NC(=O)[C@H](CC(C)C)NC1=O)C2` (single isomer, unassigned) [FP-0751, Ac-P-Q-PS-I-L-D-S5-H-V-R-R-V-W-R-NH2], the pEC50 is below 5.30.
Regarding `CC[C@H](C)[C@@H]1NC(=O)[C@]2(NC(=O)[C@H](CCC(N)=O)NC(=O)[C@@H]3CCCN3C(C)=O)CCN(CC=CCCCCC[C@@](C)(C(=O)N[C@@H](Cc3c[nH]cn3)C(=O)N[C@H](C(=O)N[C@@H](CCCNC(=N)N)C(=O)N[C@@H](CCCNC(=N)N)C(=O)N[C@H](C(=O)N[C@@H](Cc3c[nH]c4ccccc34)C(=O)N[C@@H](CCCNC(=N)N)C(N)=O)C(C)C)C(C)C)NC(=O)[C@H](CC(=O)O)NC(=O)[C@H](CC(C)C)NC1=O)C2` (single isomer, unassigned) [FP-0753, Ac-P-Q-PS-I-L-D-S7-H-V-R-R-V-W-R-NH2], the negative-log EC50 (pEC50) was below 5.30.
In the case of `CC[C@H](C)[C@@H]1NC(=O)[C@](C)(NC(=O)[C@H](CCC(N)=O)NC(=O)[C@@H]2CCCN2C(C)=O)CCCC=CCN2CC[C@@](C(=O)N[C@@H](Cc3c[nH]cn3)C(=O)N[C@H](C(=O)N[C@@H](CCCNC(=N)N)C(=O)N[C@@H](CCCNC(=N)N)C(=O)N[C@H](C(=O)N[C@@H](Cc3c[nH]c4ccccc34)C(=O)N[C@@H](CCCNC(=N)N)C(N)=O)C(C)C)C(C)C)(C2)NC(=O)[C@H](CC(=O)O)NC(=O)[C@H](CC(C)C)NC1=O` (single isomer, unassigned) [FP-0758, Ac-P-Q-R5-I-L-D-PS-H-V-R-R-V-W-R-NH2], the pEC50 was below 5.30.
Turning to `CC[C@H](C)[C@@H]1NC(=O)[C@](C)(NC(=O)[C@H](CCC(N)=O)NC(=O)[C@@H]2CCCN2C(C)=O)CCCCC=CCOC(=O)N2CC[C@](C(=O)N[C@@H](Cc3c[nH]cn3)C(=O)N[C@H](C(=O)N[C@@H](CCCNC(=N)N)C(=O)N[C@@H](CCCNC(=N)N)C(=O)N[C@H](C(=O)N[C@@H](Cc3c[nH]c4ccccc34)C(=O)N[C@@H](CCCNC(=N)N)C(N)=O)C(C)C)C(C)C)(C2)NC(=O)[C@H](CC(=O)O)NC(=O)[C@H](CC(C)C)NC1=O` (single isomer, unassigned) [FP-0767c, Ac-P-Q-R6-I-L-D-PR-H-V-R-R-V-W-R-NH2], the negative-log EC50 (pEC50) was 6.96.
As for `CC[C@H](C)[C@@H]1NC(=O)[C@](C)(NC(=O)[C@H](CCC(N)=O)NC(=O)[C@@H]2CCCN2C(C)=O)CCCCCC=CCN2CC[C@](C(=O)N[C@@H](Cc3c[nH]cn3)C(=O)N[C@H](C(=O)N[C@@H](CCCNC(=N)N)C(=O)N[C@@H](CCCNC(=N)N)C(=O)N[C@H](C(=O)N[C@@H](Cc3c[nH]c4ccccc34)C(=O)N[C@@H](CCCNC(=N)N)C(N)=O)C(C)C)C(C)C)(C2)NC(=O)[C@H](CC(=O)O)NC(=O)[C@H](CC(C)C)NC1=O` (single isomer, unassigned) [FP-0768, Ac-P-Q-R7-I-L-D-PR-H-V-R-R-V-W-R-NH2], the negative-log EC50 (pEC50) was below 5.30.

The values above are taken from patent US11198713B2, “Agents modulating beta-catenin functions and methods thereof” (FOG PHARMACEUTICALS, INC., priority 2017, dated 2021).
